Data reported in patent US10525055B2, “Opioid receptor antagonist prodrugs” (Nirsum Laboratories, Inc., priority 2017, dated 2020).

Columns and labels:
KOR = target: T1, KOR (Homo sapiens, UniProt P41145); experiment: Opioid receptor binding assay, KOR ([3H]Diprenorphine); conditions: KOR
T1 construct: expressed in transfected cells; membranes prepared from them

MOR = target: T2, MOR (Homo sapiens, UniProt P35372); experiment: Opioid receptor binding assay, MOR ([3H]DAMGO); conditions: MOR
T2 construct: expressed in transfected cells; membranes prepared from them
T2 sequence (P35372 whole entry): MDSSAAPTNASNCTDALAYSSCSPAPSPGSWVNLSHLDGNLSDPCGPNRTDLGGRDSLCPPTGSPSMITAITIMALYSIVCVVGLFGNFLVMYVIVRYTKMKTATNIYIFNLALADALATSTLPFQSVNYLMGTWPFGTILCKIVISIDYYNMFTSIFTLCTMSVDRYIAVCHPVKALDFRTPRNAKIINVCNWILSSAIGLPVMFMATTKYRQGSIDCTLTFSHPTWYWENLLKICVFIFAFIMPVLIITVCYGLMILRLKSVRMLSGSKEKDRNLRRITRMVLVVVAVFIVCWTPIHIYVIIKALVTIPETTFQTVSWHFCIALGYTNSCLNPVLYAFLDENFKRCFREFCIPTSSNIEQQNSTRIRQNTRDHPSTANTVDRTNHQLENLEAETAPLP

[1] = Solubility determination in oil (cottonseed oil, sesame oil); conditions: heating temp. 60 °C, obs. temp. 25 °C
Protocol: A known amount of test substance (˜40 mg) was weighed into the vial, 100 μL of oil was added and heated to 60° C. and then system was slurried to reach equilibrium. […] Extra oil was added into the vial once compound precipitated out and then the system was re-equilibrated at 1000 rpm at room temperature (25° C.). Final concentration was determined by HPLC method as described below in Table 6a and 6b.

DOR = target: T3, DOR (Homo sapiens, UniProt P41143); experiment: Opioid receptor binding assay, DOR ([3H]-DADLE); conditions: DOR
T3 construct: expressed in transfected cells; membranes prepared from them
T3 sequence (P41143 whole entry): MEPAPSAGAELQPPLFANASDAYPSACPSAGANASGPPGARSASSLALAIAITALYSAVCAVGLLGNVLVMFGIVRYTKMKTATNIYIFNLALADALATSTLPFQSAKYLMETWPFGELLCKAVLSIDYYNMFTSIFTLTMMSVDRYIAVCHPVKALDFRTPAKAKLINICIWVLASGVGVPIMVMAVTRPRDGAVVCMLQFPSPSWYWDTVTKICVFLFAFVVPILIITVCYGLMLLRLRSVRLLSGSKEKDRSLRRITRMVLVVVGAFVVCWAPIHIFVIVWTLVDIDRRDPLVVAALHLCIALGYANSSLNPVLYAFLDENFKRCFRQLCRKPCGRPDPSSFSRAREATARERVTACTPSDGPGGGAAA

[2] = Plasma stability assay, rat plasma; format: in vitro ADME; conditions: 37° C., 10 μM
Protocol: Plasma stability determination of the test compounds in rat, dog, cynomolgus monkey and human plasma is performed using HPLC-MS. For rat, incubations are carried out in 96-well polypropylene plates in 5 aliquots of 70 μL each (one for each time point). […] Five time points are analyzed (0, 15, 120, 480 and 1440 min). For dog, monkey and human, test compounds (2 μM, final solvent concentration 1%) were also incubated at 37° C. and analyzed at five time points (0, 10, 30, 60 and 120 min). All incubations are performed in duplicates. The samples are analyzed by HPLC-MS. The percentage of parent compound remaining after incubation in plasma is determined.

T1 sequence (P41145 whole entry): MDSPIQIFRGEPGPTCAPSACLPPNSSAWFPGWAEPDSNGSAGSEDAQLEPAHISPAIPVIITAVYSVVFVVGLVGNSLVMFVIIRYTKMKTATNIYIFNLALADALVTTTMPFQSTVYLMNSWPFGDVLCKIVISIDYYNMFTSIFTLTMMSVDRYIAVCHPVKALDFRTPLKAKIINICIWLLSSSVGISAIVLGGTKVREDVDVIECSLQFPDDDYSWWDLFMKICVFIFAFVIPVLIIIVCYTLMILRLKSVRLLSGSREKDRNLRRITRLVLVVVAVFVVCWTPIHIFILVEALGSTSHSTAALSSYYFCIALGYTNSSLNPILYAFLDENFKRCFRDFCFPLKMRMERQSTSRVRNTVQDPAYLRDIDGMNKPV

| Compound | %Inh@MaxDose (KOR; MaxDose 10000 nM) [%] | %Inh@MaxDose (MOR; MaxDose 10000 nM) [%] | Approximate Solubility (mg/mL) in Excipient: Sesame oil [1] [mg/mL] | %Inh@MaxDose (DOR; MaxDose 10000 nM) [%] | %Inh@MaxDose (KOR; MaxDose 1000 nM) [%] | %Inh@MaxDose (MOR; MaxDose 1000 nM) [%] | %Inh@MaxDose (DOR; MaxDose 1000 nM) [%] | % remaining at time point in minutes, 0 min [2] [%] | % remaining at time point in minutes, 15 min [2] [%] | % remaining at time point in minutes, 120 min [2] [%] | % remaining at time point in minutes, 480 min [2] [%] | % remaining at time point in minutes, 1440 min [2] [%] | Approximate Solubility (mg/mL) in Excipient: Cottonseed oil ([1]; Cottonseed oil) [mg/mL] |
| --- | --- | --- | --- | --- | --- | --- | --- | --- | --- | --- | --- | --- | --- |
| C=C1CC[C@@]2(O)C3Cc4ccc(OC(=O)OCCCCCCCCCCCCCCC)c5c4[C@@]2(CCN3CC2CC2)[C@H]1O5 [Compound 32, (4aS,7aS,12bS)-3-(cyclopropylmethyl)-4a-hydroxy-7-methylene-2,3,4,4a,5,6,7,7a-octahydro-1H-4,12-methanobenzofuro[3,2-e]isoquinolin-9-yl pentadecyl carbonate] | 80.1 | 75.9 | >410 | – | – | – | – | – | – | – | – | – | – |
| C=C1CC[C@@]2(O)C3Cc4ccc(OCOC(=O)CCCCCCCCCCCCCCC)c5c4[C@@]2(CCN3CC2CC2)[C@H]1O5 [Compound 46, (((4aS,7aS,12bS)-3-(cyclopropylmethyl)-4a-hydroxy-7-methylene-2,3,4,4a,5,6,7,7a-octahydro-1H-4,12-methanobenzofuro[3,2-e]isoquinolin-9-yl)oxy)methyl hexadecanoate] | 101.8 | 102.3 | – | 72.3 | – | – | – | – | – | – | – | – | – |
| C=C1CC[C@@]2(O)[C@H]3Cc4ccc(O)c5c4[C@@]2(CCN3CC2CC2)[C@H]1O5 [nalmefene, 17-cyclopropylmethyl-4,5α-epoxy-6-methylenemorphinan-3,14-diol, reference compound] | – | – | – | – | 103 | 103.5 | 94.5 | – | – | – | – | – | – |
| C=C1CC[C@@]2(O)C3Cc4ccc(OC(=O)OCCCCCCCCCCCCC)c5c4[C@@]2(CCN3CC2CC2)[C@H]1O5 [Compound 30, (4aS,7aS,12bS)-3-(cyclopropylmethyl)-4a-hydroxy-7-methylene-2,3,4,4a,5,6,7,7a-octahydro-1H-4,12-methanobenzofuro[3,2-e]isoquinolin-9-yl tridecyl carbonate] | 97.6 | 82.5 | 252.55 to 398.6 | 84.3 | – | – | – | 100 | 65.7 | 40.3 | 30.5 | 22.2 | – |
| C=C1CC[C@@]2(O)C3Cc4ccc(OCOC(=O)CCCCCCCCCCC)c5c4[C@@]2(CCN3CC2CC2)[C@H]1O5 [Compound 44, (((4aS,7aS,12bS)-3-(cyclopropylmethyl)-4a-hydroxy-7-methylene-2,3,4,4a,5,6,7,7a-octahydro-1H-4,12-methanobenzofuro[3,2-e]isoquinolin-9-yl)oxy)methyl dodecanoate] | 99.2 | 83.1 | – | 79.1 | – | – | – | – | – | – | – | – | – |
| C=C1CC[C@@]2(O)C3Cc4ccc(OCOC(=O)OCCCCCCCCCCCCCC)c5c4[C@@]2(CCN3CC2CC2)[C@H]1O5 [Compound 25, (((4aS,7aS,12bS)-3-(cyclopropylmethyl)-4a-hydroxy-7-methylene-2,3,4,4a,5,6,7,7a-octahydro-1H-4,12-methanobenzofuro[3,2-e]isoquinolin-9-yl)oxy)methyl tetradecyl carbonate] | 76.9 | 87.3 | – | 62 | – | – | – | 100 | 82.6 | 69.3 | 62.2 | 51.7 | – |
| CCCCCCCCOC(=O)Oc1ccc2c3c1O[C@H]1C(=O)CC[C@@]4(O)C(C2)N(CC2CC2)CC[C@]314 [Compound 23, (4aS,7aR,12bS)-3-(cyclopropylmethyl)-4a-hydroxy-7-oxo-2,3,4,4a,5,6,7,7a-octahydro-1H-4,12-methanobenzofuro[3,2-e]isoquinolin-9-yl octyl carbonate] | 101.6 | 98.7 | >423.9 | 95.6 | – | – | – | 10 | 0 | 0 | 0 | 0 | >407.7 |
